This note sets out measurements from patent US10561142B2, “Dispersed lactams” (Conopco, Inc., priority 2015, dated 2020).

A short description of this series: Dissolution of lactam / PVP solid dispersion in water (visual, FIG. 1). The settings on record: added to water, amount of lactam equivalent to that in the 1% lactam/PVP solid dispersion. It counts as physicochemical. An excerpt:
The inventor(s) have shown that solid dispersion of lactam in PVP confers enhanced aqueous solubility to the lactam. […] Note that this example is a proof of concept, and the lactam used was 4-(4-fluorophenyl)-5-methylene-pyrrol-2-one.
Such solid dispersions dissolve rapidly to give clear solutions.

The structures appear in SMILES notation.

On to `C=C1NC(=O)C=C1c1ccc(F)cc1` [4-(4-fluorophenyl)-5-methylene-pyrrol-2-one], for which the “dissolution in water (aqueous solubility)” value is “does not dissolve”.
